Assay results taken from patent publication US5658928A, “Amino acid derivatives” (Hoffmann-La Roche Inc., priority 1991, dated 1997).

How the values were obtained:
[1] = target: T1, fibrinogen receptor, glycoprotein IIb/IIIa (Homo sapiens, UniProt P05106+P08514); test: inhibition of the binding of fibrinogen to the immobilized fibrinogen receptor, glycoprotein IIb/IIIa (ELISA); settings: concentration required to inhibit the binding of fibrinogen to the immobilized receptor by 50%
T1 construct: The glycoprotein IIb/IIIa is obtained from Triton X-100 extracts of human blood platelets; from tissue; host or cells: human blood platelets (Triton X-100 extract)
T1 sequence (P08514 32-887 limits assumed): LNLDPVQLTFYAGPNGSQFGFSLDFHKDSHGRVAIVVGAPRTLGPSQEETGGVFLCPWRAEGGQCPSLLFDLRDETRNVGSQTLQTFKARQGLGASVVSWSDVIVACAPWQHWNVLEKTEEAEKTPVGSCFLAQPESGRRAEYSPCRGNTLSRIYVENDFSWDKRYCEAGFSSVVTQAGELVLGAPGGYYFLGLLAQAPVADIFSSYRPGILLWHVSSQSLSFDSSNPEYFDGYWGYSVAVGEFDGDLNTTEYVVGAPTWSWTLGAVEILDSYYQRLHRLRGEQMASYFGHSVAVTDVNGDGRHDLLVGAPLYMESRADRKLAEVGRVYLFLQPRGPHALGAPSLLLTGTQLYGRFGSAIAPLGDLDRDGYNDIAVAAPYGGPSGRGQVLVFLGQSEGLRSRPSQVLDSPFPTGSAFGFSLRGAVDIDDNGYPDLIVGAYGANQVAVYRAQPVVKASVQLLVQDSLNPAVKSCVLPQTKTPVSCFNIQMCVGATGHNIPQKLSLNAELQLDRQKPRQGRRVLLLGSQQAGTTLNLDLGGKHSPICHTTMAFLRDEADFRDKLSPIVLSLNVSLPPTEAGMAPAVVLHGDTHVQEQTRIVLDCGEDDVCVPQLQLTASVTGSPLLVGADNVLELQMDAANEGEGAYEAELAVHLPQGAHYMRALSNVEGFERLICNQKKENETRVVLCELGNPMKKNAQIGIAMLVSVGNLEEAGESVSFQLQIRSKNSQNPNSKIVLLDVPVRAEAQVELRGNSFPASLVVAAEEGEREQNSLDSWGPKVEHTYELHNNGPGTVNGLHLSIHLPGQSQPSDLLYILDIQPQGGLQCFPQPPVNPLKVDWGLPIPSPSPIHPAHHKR
T1 sequence (P08514 891-1039 partner limits assumed): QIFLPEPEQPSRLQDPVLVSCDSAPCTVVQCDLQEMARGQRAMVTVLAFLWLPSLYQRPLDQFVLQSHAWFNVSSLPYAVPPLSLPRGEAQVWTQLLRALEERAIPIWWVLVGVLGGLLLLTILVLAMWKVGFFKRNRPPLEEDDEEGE
T1 sequence (P05106 27-788): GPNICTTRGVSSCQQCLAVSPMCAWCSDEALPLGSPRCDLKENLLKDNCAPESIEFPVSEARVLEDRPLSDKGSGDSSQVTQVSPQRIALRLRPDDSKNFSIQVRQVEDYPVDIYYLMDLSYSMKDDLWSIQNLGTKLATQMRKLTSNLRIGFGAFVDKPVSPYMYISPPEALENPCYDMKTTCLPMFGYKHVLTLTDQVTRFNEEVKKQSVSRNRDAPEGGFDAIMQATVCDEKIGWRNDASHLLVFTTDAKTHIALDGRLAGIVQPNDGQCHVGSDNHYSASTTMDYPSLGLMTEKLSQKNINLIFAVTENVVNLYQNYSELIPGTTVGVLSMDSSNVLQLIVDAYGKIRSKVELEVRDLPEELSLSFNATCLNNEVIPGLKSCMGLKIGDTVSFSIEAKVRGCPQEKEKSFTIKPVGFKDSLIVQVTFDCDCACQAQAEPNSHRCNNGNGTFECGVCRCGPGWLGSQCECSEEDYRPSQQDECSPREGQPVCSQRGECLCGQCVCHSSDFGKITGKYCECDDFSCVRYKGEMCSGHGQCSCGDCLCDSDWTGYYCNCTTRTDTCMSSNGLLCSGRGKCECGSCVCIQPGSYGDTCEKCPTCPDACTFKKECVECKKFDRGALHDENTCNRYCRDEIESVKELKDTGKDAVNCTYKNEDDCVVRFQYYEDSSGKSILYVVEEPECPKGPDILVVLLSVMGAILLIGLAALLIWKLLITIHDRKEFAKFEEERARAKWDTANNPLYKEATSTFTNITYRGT
Experimental: The glycoprotein IIb/IIIa is obtained from Triton X-100 extracts of human blood platelets and purified by lectin affinity chromatography (Analytical Biochemistry 151, 1985, 169-177) and chromatography on an Arg-Gly-Asp-Ser affinity column (Science 231, 1986, 1559-62). The thus-obtained receptor protein is bonded to microtiter plates. The specific binding of fibrinogen to the immobilized receptor is determined with the aid of an ELISA system ("enzyme-linked immunosorbent assay"). The IC50 values hereinafter correspond to that concentration of the test substance which is required to inhibit the binding of fibrinogen to the immobilized receptor by 50%: […]

in vivo = settings: iv, i.v. in the mouse
Description: These compounds have low toxicity.

Row | IC50 [1] | Compound | LD50 (in vivo)
1 | 140 µM | C[C@@H](NC(=O)c1ccc(C(=N)N)cc1)C(=O)N1CCC(OCC(=O)O)CC1 [Example 4, [[1-[N-(p-amidinobenzoyl)-D-alanyl]-4-piperidinyl]oxy]acetic acid] | 
2 | 27 µM | CC(C)[C@H](NC(=O)c1ccc(C(=N)N)cc1)C(=O)N1CCC(OCC(=O)O)CC1 [Example 6, [[1-[N-(p-amidinobenzoyl)-L-valyl]-4-piperidinyl]oxy]-acetic acid] | 
3 | 33 µM | CC(C)C[C@H](NC(=O)c1ccc(C(=N)N)cc1)C(=O)N1CCC(OCC(=O)O)CC1 [Example 7, [[1-[N-(p-amidinobenzoyl)-L-leucyl]-4-piperidinyl]oxy]acetic acid] | 

Second part, the compound before the results:

Row | Compound | IC50 [1] | LD50 (in vivo)
4 | N=C(N)c1ccc(C(=O)NCC(=O)N2CCC(OCC(=O)O)CC2)cc1 [Example 1, [[1-[N-(p-amidinobenzoyl)glycyl]-4-piperidinyl]oxy]acetic acid] | 10 µM | 
5 | C[C@H](NC(=O)c1ccc(C(=N)N)cc1)C(=O)N1CCC(OCC(=O)O)CC1 [Example 3, [[1-[N-(p-amidinobenzoyl)-L-alanyl]-4-piperidinyl]oxy]acetic acid] | 1.7 µM | 250 mg/kg
6 | C[C@H](NC(=O)c1ccc(C(=N)N)cn1)C(=O)N1CCC(OCC(=O)O)CC1 [Example 5, [[1-[N-[(5-amidino-2-pyridyl)carbonyl]-L-alanyl]-4-piperidinyl]oxy]acetic acid] | 1 µM | 500 mg/kg
7 | N=C(N)c1ccc(C(=O)N[C@@H](Cc2ccc(O)cc2)C(=O)N2CCC(OCC(=O)O)CC2)cc1 [Example 14, [[1-[N-(p-amidinobenzoyl)-L-tyrosil]-4-piperidinyl]oxy]acetic acid] |  | 250 mg/kg
